Measured values: patent US6239138A, “Vitronectin receptor antagonist” (SmithKline Beecham Corporation, priority 1999, dated 2001)

Legend:
[1] = target: T1, αvβ3 (vitronectin receptor) (Homo sapiens, UniProt P05106+P06756); experiment: Solid-phase [3H]-SK&F-107260 binding to αvβ3 (inhibition of vitronectin binding); conditions: [3H]-SK&F-107260 as ligand, 5.0 nM; human placenta or platelet αvβ3
T1 construct: Human placenta or human platelet αvβ3; from tissue; host or cells: human placenta or human platelets
Procedure: Solid-Phase [^3 H]-SK&F-107260 Binding to αvβ3 : Human placenta or human platelet αvβ3 (0.1-0.3 mg/mL) in buffer T (containing 2 mM CaCl2 and 1% octylglucoside) was diluted with buffer T containing 1 mM CaCl2, 1 mM MnCl2, 1 mM MgCl2 (buffer A) and 0.05% NaN3, and then immediately added to 96-well ELISA plates (Corning, New York, N.Y.) at 0.1 mL per well. 0.1-0.2 ,g of αvβ3 was added per well. The plates were incubated overnight at 4° C. At the time of the experiment, the wells were washed once with buffer A and were incubated with 0.1 mL of 3.5% bovine serum albumin in the same buffer for 1 hr at room temperature. Following incubation the wells were aspirated completely and washed twice with 0.2 mL buffer A. […]
The plates were incubated for 1 hr at room temperature. […] The receptors were solubilized with 0.1 mL of 1% SDS and the bound [^3 H]-SK&F-107260 was determined by liquid scintillation counting with the addition of 3 mL Ready Safe in a Beckman LS Liquid Scintillation Counter, with 40% efficiency. Nonspecific binding of [^3 H]-SK&F-107260 was determined in the presence of 2 LM SK&F-107260 and was consistently less than 1% of total radioligand input. […] The Ki (dissociation constant of the antagonist) was calculated according to the equation: Ki =IC50 /(1+L/Kd), where L and Kd were the concentration and the dissociation constant of [^3 H]-SK&F-107260, respectively.

osteoclasts = conditions: Sato et al. 1990 (echistatin); Bertolini et al. (cyclic peptide); cited from earlier work
bone resorption [2] = conditions: Sato et al., J. Cell Biol. 1990; cited from earlier work
bone resorption [3] = conditions: rat; Fisher et al., Endocrinology 1993; cited from earlier work

T1 sequence (P06756 31-889 limits assumed): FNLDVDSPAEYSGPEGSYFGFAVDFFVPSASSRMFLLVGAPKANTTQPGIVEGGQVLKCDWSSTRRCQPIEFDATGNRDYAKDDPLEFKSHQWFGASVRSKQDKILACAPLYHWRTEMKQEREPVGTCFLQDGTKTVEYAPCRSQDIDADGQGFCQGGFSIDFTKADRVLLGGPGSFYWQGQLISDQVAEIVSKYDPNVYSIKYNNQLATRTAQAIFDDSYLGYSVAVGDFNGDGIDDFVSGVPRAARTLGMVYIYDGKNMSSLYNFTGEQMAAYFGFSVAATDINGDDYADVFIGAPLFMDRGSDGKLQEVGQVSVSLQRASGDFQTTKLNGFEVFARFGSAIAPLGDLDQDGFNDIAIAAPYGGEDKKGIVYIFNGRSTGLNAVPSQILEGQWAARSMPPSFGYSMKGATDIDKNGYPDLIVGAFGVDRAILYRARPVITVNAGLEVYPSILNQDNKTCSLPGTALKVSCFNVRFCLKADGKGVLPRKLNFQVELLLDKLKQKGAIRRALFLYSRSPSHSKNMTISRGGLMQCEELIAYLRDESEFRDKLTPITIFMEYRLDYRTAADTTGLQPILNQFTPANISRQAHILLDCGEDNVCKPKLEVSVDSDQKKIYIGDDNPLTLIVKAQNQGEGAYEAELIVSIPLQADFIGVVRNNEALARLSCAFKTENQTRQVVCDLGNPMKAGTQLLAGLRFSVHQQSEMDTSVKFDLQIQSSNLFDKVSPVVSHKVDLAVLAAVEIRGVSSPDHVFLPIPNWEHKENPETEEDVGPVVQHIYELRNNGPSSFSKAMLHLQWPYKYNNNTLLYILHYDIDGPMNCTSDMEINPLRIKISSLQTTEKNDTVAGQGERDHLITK
T1 sequence (P06756 891-1048 partner limits assumed): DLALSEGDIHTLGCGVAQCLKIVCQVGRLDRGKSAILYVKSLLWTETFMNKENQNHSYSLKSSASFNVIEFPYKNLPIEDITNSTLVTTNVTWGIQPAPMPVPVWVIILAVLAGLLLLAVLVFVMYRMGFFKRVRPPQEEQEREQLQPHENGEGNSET
T1 sequence (P05106 27-788): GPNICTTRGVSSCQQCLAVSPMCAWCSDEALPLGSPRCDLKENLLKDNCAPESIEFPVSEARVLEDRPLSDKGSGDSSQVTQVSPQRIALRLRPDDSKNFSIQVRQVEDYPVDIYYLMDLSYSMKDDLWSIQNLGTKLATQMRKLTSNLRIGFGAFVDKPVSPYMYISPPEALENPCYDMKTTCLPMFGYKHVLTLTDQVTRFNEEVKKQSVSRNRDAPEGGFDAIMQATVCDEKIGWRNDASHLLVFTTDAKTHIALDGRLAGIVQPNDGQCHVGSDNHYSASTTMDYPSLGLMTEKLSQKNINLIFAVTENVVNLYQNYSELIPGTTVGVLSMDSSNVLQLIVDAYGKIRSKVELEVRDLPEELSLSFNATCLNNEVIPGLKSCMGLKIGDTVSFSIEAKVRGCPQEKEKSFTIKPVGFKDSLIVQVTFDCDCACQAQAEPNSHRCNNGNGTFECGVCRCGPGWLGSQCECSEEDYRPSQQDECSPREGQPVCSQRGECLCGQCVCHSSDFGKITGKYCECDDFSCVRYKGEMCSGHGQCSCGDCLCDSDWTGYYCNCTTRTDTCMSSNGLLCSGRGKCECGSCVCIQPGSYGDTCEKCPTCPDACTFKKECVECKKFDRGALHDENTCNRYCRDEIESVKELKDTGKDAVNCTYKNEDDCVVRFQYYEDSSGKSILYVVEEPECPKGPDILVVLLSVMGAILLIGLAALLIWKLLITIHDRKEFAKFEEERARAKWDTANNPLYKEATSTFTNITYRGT

| Ki [1] [nM] | Compound | inhibition of attachment of osteoclasts to bone (osteoclasts) | inhibition of bone resorption in tissue culture (bone resorption [2]) | inhibition of bone resorption in vivo (bone resorption [3]) |
| --- | --- | --- | --- | --- |
| ~23 | O=C(O)CC1Cc2ccc(OCCCNc3ccccn3)cc2CCC1=O (racemic) [(±)-2-(2-Pyridylamino)propoxy-6,7,8,9-tetrahydro-7-oxo-5H-benzocycloheptenyl-6-acetic acid] | – | – | – |
| – | cylco-S,S-N^α -acetyl-cysteinyl-N^α -methyl-argininyl-glycyl-aspartyl-penicillamine | inhibits osteoclast attachment to bone | – | – |
| – | echistatin | inhibits attachment of osteoclasts to bone | potent inhibitor of bone resorption in tissue culture | inhibits bone resorption in vivo in the rat |
